Assays:
rppGalNAcT-5 = molecular target: T1, rppGalNAcT-5 (Rattus norvegicus, UniProt O88422); test: Radiolabel capture assay, rppGalNAcT-5; assay type: biochemical; conditions: α-FLAG purified enzyme
T1 construct: plasmids encoding truncated secreted ppGalNAcTs-1 to −5, -7, -10 and -11; FLAG; made in house; host or cells: COS-7
T1 sequence (O88422 36-930 limits assumed): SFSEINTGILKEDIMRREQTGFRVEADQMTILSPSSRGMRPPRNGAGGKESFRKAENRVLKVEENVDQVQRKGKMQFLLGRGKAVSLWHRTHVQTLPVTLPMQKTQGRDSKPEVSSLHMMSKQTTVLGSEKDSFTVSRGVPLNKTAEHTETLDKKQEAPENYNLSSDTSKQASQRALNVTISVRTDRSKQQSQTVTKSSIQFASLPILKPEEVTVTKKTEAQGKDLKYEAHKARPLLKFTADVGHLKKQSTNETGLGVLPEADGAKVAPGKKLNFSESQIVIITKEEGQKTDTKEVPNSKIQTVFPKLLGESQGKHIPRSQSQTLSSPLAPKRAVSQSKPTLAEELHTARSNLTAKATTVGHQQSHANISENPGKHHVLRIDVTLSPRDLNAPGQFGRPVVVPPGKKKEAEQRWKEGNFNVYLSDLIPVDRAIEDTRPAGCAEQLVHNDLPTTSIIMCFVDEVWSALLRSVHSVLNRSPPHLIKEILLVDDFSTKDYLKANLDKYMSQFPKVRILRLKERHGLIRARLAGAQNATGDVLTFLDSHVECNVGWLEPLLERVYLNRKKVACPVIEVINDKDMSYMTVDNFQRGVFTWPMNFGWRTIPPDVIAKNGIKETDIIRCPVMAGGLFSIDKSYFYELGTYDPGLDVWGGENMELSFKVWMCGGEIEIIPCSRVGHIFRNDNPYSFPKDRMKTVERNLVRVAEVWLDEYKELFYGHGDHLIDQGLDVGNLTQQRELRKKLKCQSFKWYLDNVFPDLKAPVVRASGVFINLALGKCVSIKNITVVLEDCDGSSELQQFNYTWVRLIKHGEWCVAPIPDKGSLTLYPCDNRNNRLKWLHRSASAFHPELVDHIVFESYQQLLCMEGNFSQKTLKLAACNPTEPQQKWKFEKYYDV
Experimental: Radiolabel capture assays using ^14C-labeled UDP-GalNAc were performed as previously described with various concentrations of 1-68A or 2-68A in 2% DMSO. Ten Hagen et al. (2001) J. Biol. Chem. 276:17395-17404.
Table 1. IC50 values for 1-68A and 2-68A with ppGalNAcTs-1 to −5, -7, -10, -11, β1-4GalT and α1-3GalT. The requirement of glycopeptides as substrates for ppGalNAcT-7 and -10 precluded the use of the ELLA, as both the substrate and product bind HPA-HRP. Thus, the radiolabel capture assay was employed to measure the IC50 values of 1-68A and 2-68A with ppGalNAcT-7 and -10 using MUC5AC (GTTPSPVPTTSTTSAP; SEQ ID NO:15) glycopeptide, previously shown to be substrate for both enzymes. Ten Hagen et al. (1999) J. Biol. Chem. 274:27867-27874; and Ten Hagen et al. (2001) J. Biol. Chem. 276:17395-17404. IC50 values of 1-68A and 2-68A with ppGalNAcT-5 were performed with α-FLAG purified enzyme and radiolabel capture assay, due to low activity and stability of the crude enzyme. m=murine, r=rattus.

[1] = molecular target: T2, β1-4galactosyltransferase (β1-4GalT) (Bos taurus, UniProt P08037); test: Continuous assay for β1-4GalT activity; assay type: biochemical, bovine; conditions: for inhibitory activity against β1-4GalT: highest concentration tested (500 μM)
T2 construct: purchased Calbiochem
T2 sequence (P08037 1-402): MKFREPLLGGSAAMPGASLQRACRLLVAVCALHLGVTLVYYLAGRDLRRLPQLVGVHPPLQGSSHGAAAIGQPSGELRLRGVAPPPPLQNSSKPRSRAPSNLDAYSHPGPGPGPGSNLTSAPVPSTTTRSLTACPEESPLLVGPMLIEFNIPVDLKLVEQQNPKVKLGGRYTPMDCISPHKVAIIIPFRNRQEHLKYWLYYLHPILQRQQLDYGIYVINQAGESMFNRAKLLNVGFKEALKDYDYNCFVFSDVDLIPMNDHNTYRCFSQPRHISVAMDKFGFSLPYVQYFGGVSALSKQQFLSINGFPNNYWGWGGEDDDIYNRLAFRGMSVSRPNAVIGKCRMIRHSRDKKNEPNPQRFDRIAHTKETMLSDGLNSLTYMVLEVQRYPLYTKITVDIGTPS
Experimental: The enzymatic reactions contained the following components in a final volume of 100 μL: 20 mM MnCl2, 100 mM sodium cacodylate, pH 6.5, 5 U of pyruvate kinase, 5 U of lactate dehydrogenase, 2 mM PEP, 0.2 mM NADH with 0.4 mU of β1-4GalT, 1 mM βOMeGlcNAc, 25 μM UDP-Gal or 1.0 mU of α1-3GalT, 1 mM LacNAc, 100 μM UDP-Gal and various concentrations of 1-68A or 2-68A in 2.5% DMSO. The reaction mixtures were incubated at 37° C. for 10 min before the reaction was initiated by the addition of UDP-Gal. The change in absorbance was monitored over 20 min at 340 nm.
To determine the selectivity of the compounds among the broader family of UDP-sugar utilizing enzymes, 1-68A and 2-68A were tested against bovine β1-4galactosyltransferase (β1-4GalT) and porcine α1-3galactosyltransferase (α1-3GalT), using a previously reported continuous colorimetric assay. Fitzgerald et al. (1970) Anal. Biochem. 36:43-61. Neither compound was active against β1-4GalT or α1-3GalT at the highest concentration tested (500 μM) (Entries 9 and 10, Table 1).

O=c1ccn([C@@H]2O[C@H](CON=Cc3ccc(O)c(O)c3O)[C@@H](O)[C@H]2O)c(=O)[nH]1 [1-68A]
IC50 (rppGalNAcT-5): 20 ± 2 µM | IC50 [1]: > 500 µM | inhibitory activity against β1-4GalT [1]: lack of inhibitory activity

O=C(CON=Cc1ccc(O)c(O)c1O)NC[C@H]1O[C@@H](n2ccc(=O)[nH]c2=O)[C@H](O)[C@@H]1O [2-68A]
IC50 (rppGalNAcT-5): 26 ± 9 µM | IC50 [1]: > 500 µM | inhibitory activity against β1-4GalT [1]: lack of inhibitory activity

Source: patent US20060063736A1, “Compositions and methods for inhibiting mucin-type O-linked glycosylation” (priority 2004, published 2006)
